Here are results for 14 molecules from PubChem BioAssay AID284 (DTP/NCI, 2004).

Where “and” joins values, the source holds several entries; their conditions need not be identical. Identical values can stand only once. Toxic doses and inconclusive results are not listed.

The test system of the assay is BDF1 mice, L1210/MTX-resistant leukemia ip, survival T/C. The assay is described as follows: NCI In Vivo Anticancer Drug Screen. Data for tumor model L1210 Leukemia resistant to Methotrexate; NSC 740 (intraperitoneal) in B6D2F1 (BDF1) mice. Particulars: endpoint: mean survival time, higher = longer survival. On the procedure:
The antitumor activity of compounds was measured in mice bearing transplantable tumors. Survival or tumor size were measured and the results are expressed as the measurement made in the treated group (T) divided by the measurement made in the vehicle treated control group (C). The tumor model used in this assay is L1210 Leukemia resistant to Methotrexate; NSC 740 (intraperitoneal) in B6D2F1 (BDF1) mice

[1] abbreviates: dose: 5.0 mg/kg/injection, schedule: Q01DX010 (ip), vehicle: saline.
Where [2] appears, read: dose: 10.0 mg/kg/injection, schedule: Q01DX010 (ip), vehicle: saline.

For `Nc1nc(=S)c2ncn(C3OC(CO)C(O)C3O)c2[nH]1` (stereo unspecified), the T/C was 88 % of control (dose: 0.22 mg/kg/injection, schedule: Q01DX Z (ip), vehicle: carboxymethylcellulose (CMC)); 88 % of control (dose: 0.45 mg/kg/injection, schedule: Q01DX Z (ip), vehicle: carboxymethylcellulose (CMC)); 102 % of control (dose: 1.8 mg/kg/injection, schedule: Q01DX Z (ip), vehicle: carboxymethylcellulose (CMC)).
With `S=P(N1CCCC1)(N1CC1)N1CC1`, the T/C reads like this: (dose: 0.03 mg/kg/injection, schedule: Q01DX Z (ip), vehicle: methylcellulose (MC)) 93 % of control; (dose: 0.05 mg/kg/injection, schedule: Q01DX Z (ip), vehicle: methylcellulose (MC)) 91 % of control; (dose: 0.1 mg/kg/injection, schedule: Q01DX Z (ip), vehicle: methylcellulose (MC)) 99 % of control.
As to `O=C(Nc1ccc(C2=NCCN2)cc1)c1ccc(C(=O)Nc2ccc(C3=NCCN3)cc2)c([N+](=O)[O-])c1`, the T/C was 259 % of control (dose: 6.0 mg/kg/injection, schedule: Q01DX010 (ip), vehicle: saline); 122 % of control (dose: 6.3 mg/kg/injection, schedule: Q01DX Z (ip), vehicle: saline); 284 % of control (dose: 8.0 mg/kg/injection, schedule: Q01DX010 (ip), vehicle: saline); 201 % of control (dose: 12.0 mg/kg/injection, schedule: Q01DX010 (ip), vehicle: saline); 97 % of control (dose: 12.5 mg/kg/injection, schedule: Q01DX Z (ip), vehicle: saline); 107 % of control (dose: 18.0 mg/kg/injection, schedule: Q01DX010 (ip), vehicle: saline). In addition, the T/C (dose: 25.0 mg/kg/injection, schedule: Q01DX Z (ip), vehicle: saline) is 116 % of control and 96 % of control.
For the molecule `Cc1cc(N(CCCl)CCCl)ccc1N=Nc1ccccc1C(=O)O`, the T/C (dose: 0.37 mg/kg/injection, schedule: Q01DX Z (ip), vehicle: carboxymethylcellulose (CMC)) was 104 % of control; the T/C (dose: 0.75 mg/kg/injection, schedule: Q01DX Z (ip), vehicle: carboxymethylcellulose (CMC)) is 124 % of control; the T/C (dose: 3.0 mg/kg/injection, schedule: Q01DX Z (ip), vehicle: carboxymethylcellulose (CMC)) is 94 % of control; the T/C (dose: 4.0 mg/kg/injection, schedule: Q01DX Z (ip), vehicle: carboxymethylcellulose (CMC)) was 109 % of control; the T/C under setting [1] was 123 % of control; the T/C (dose: 6.0 mg/kg/injection, schedule: Q01DX Z (ip), vehicle: carboxymethylcellulose (CMC)) is 124 % of control. The T/C (dose: 8.0 mg/kg/injection, schedule: Q01DX Z (ip), vehicle: carboxymethylcellulose (CMC)) is 104 % of control; the T/C under setting [2] was 107 % of control; the T/C (dose: 10.0 mg/kg/injection, schedule: Q01DX Z (ip), vehicle: carboxymethylcellulose (CMC)) is 97 % of control; the T/C (dose: 20.0 mg/kg/injection, schedule: Q01DX010 (ip), vehicle: saline) is 88 % of control.
With `O[C@H](CN1CC1)[C@@H](O)CN1CC1`, the T/C was 99 % of control (dose: 0.01 mg/kg/injection, schedule: Q01DX Z (ip), vehicle: saline); 105 % of control (dose: 0.02 mg/kg/injection, schedule: Q01DX Z (ip), vehicle: saline); 151 % of control (dose: 0.37 mg/kg/injection, schedule: Q01DX Z (ip), vehicle: saline).
Turning to `C1CN1c1nc(N2CC2)nc(N2CC2)n1`, the T/C was 93 % of control (dose: 2.0 mg/kg/injection, schedule: Q01DX Z (ip), vehicle: saline); 93 % of control (dose: 4.0 mg/kg/injection, schedule: Q01DX Z (ip), vehicle: saline); 90 % of control and 100 % of control (dose: 32.0 micrograms/kg/injection, schedule: Q01DX Z (ip), vehicle: saline); 98 % of control (dose: 63.0 micrograms/kg/injection, schedule: Q01DX Z (ip), vehicle: saline); 87 % of control (dose: 125.0 micrograms/kg/injection, schedule: Q01DX Z (ip), vehicle: saline); 98 % of control (dose: 250.0 micrograms/kg/injection, schedule: Q01DX Z (ip), vehicle: saline).
Take `C[C@H](N)C(=O)N[C@@H]1[C@H]2C(=C(O)C[C@@H](O)[C@@H]2O)C(=O)O[C@@H]1C`: the T/C is, setting by setting: (dose: 500.0 mg/kg/injection, schedule: Q01DX Z (ip), vehicle: saline) 120 % of control; (dose: 600.0 mg/kg/injection, schedule: Q01DX Z (ip), vehicle: saline) 174 % of control and 187 % of control; (dose: 1000.0 mg/kg/injection, schedule: Q01DX Z (ip), vehicle: saline) 102 % of control and 110 % of control; (dose: 1200.0 mg/kg/injection, schedule: Q01DX Z (ip), vehicle: saline) 121 % of control and 122 % of control.
As for `Cc1c(O)ccc(=O)n1O`, the T/C by setting is: (dose: 49.0 mg/kg/injection, schedule: Q01DX Z (ip), vehicle: other) 98 % of control; (dose: 73.0 mg/kg/injection, schedule: Q01DX Z (ip), vehicle: other) 86 % of control; (dose: 110.0 mg/kg/injection, schedule: Q01DX Z (ip), vehicle: other) 114 % of control; (dose: 165.0 mg/kg/injection, schedule: Q01DX Z (ip), vehicle: other) 110 % of control; (dose: 247.0 mg/kg/injection, schedule: Q01DX Z (ip), vehicle: other) 96 % of control.
As for `CN(N=O)C(=O)NC(C=O)C(O)C(O)C(O)CO` (stereo unspecified), the T/C was 100 % of control (dose: 12.5 mg/kg/injection, schedule: Q01DX010 (ip), vehicle: saline); 106 % of control (dose: 50.0 mg/kg/injection, schedule: Q01DX Z (ip), vehicle: saline); 100 % of control (dose: 100.0 mg/kg/injection, schedule: Q01DX010 (ip), vehicle: saline); 97 % of control (dose: 100.0 mg/kg/injection, schedule: Q01DX Z (ip), vehicle: saline).
`O=c1[nH]c(=O)n(C2CC(O)C(CO)O2)cc1I` (stereo unspecified): the T/C was 102 % of control (dose: 3.75 mg/kg/injection, schedule: Q01DX Z (ip), vehicle: carboxymethylcellulose (CMC)); 108 % of control (dose: 7.5 mg/kg/injection, schedule: Q01DX Z (ip), vehicle: carboxymethylcellulose (CMC)); 108 % of control (dose: 15.0 mg/kg/injection, schedule: Q01DX Z (ip), vehicle: carboxymethylcellulose (CMC)); 106 % of control (dose: 30.0 mg/kg/injection, schedule: Q01DX Z (ip), vehicle: carboxymethylcellulose (CMC)).
With `O=C(Nc1ccc(C2=NCCN2)cc1)c1ccc(C(=O)Nc2ccc(C3=NCCN3)cc2)cc1`, the T/C is, setting by setting: (dose: 4.0 mg/kg/injection, schedule: Q01DX010 (ip), vehicle: other) 194 % of control and 204 % of control; (dose: 8.0 mg/kg/injection, schedule: Q01DX010 (ip), vehicle: other) 244 % of control and 279 % of control; (dose: 10.0 mg/kg/injection, schedule: Q01DX Z (ip), vehicle: methylcellulose (MC)) 124 % of control and 105 % of control; (dose: 16.0 mg/kg/injection, schedule: Q01DX010 (ip), vehicle: other) 218 % of control and 219 % of control; (dose: 20.0 mg/kg/injection, schedule: Q01DX Z (ip), vehicle: methylcellulose (MC)) 120 % of control and 106 % of control; (dose: 32.0 mg/kg/injection, schedule: Q01DX010 (ip), vehicle: other) 231 % of control and 239 % of control. Also, the T/C is, setting by setting: (dose: 40.0 mg/kg/injection, schedule: Q01DX Z (ip), vehicle: methylcellulose (MC)) 117 % of control; (dose: 64.0 mg/kg/injection, schedule: Q01DX010 (ip), vehicle: other) 222 % of control and 242 % of control.
Turning to `CN(C)c1ccc(/C=C/c2ccnc3ccccc23)cc1`, the T/C is 121 % of control (dose: 2.5 mg/kg/injection, schedule: Q01DX Z (ip), vehicle: saline); 104 % of control under setting [1]; 101 % of control (dose: 5.0 mg/kg/injection, schedule: Q01DX Z (ip), vehicle: saline); 95 % of control under setting [2].
As for `CCCCNc1ncnc2c1cnn2C`, the T/C (dose: 31.25 mg/kg/injection, schedule: Q01DX010 (ip), vehicle: saline) was 98 % of control and 102 % of control; the T/C (dose: 62.5 mg/kg/injection, schedule: Q01DX010 (ip), vehicle: saline) was 90 % of control.
In the case of `CCn1cnc2c(=S)nc[nH]c21`, the T/C was 95 % of control (dose: 12.0 mg/kg/injection, schedule: Q01DX Z (ip), vehicle: carboxymethylcellulose (CMC)); 102 % of control (dose: 15.6 mg/kg/injection, schedule: Q01DX010 (ip), vehicle: saline); 98 % of control (dose: 18.0 mg/kg/injection, schedule: Q01DX Z (ip), vehicle: carboxymethylcellulose (CMC)); 121 % of control (dose: 25.0 mg/kg/injection, schedule: Q01DX Z (ip), vehicle: carboxymethylcellulose (CMC)); 90 % of control (dose: 31.3 mg/kg/injection, schedule: Q01DX010 (ip), vehicle: saline); 89 % of control (dose: 37.0 mg/kg/injection, schedule: Q01DX Z (ip), vehicle: carboxymethylcellulose (CMC)). Also, the T/C is, setting by setting: (dose: 100.0 mg/kg/injection, schedule: Q01DX Z (ip), vehicle: carboxymethylcellulose (CMC)) 90 % of control; (dose: 125.0 mg/kg/injection, schedule: Q01DX010 (ip), vehicle: saline) 90 % of control.
